In assay [1] the target is T1, 5-hydroxytryptamine receptor 2C (Homo sapiens, UniProt P28335).
T1 sequence (P28335 whole entry): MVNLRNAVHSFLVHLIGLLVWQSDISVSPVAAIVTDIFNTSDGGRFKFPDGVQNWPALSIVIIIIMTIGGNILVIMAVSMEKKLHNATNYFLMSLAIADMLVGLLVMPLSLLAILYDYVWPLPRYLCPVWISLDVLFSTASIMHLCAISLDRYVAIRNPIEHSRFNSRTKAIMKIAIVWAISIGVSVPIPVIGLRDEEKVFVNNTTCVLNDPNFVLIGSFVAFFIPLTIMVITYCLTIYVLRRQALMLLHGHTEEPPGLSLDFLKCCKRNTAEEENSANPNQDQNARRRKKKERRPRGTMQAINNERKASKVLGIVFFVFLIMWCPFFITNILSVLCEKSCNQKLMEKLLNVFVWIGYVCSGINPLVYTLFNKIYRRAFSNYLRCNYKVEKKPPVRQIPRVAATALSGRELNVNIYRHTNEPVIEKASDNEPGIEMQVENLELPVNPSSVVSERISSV
In words: DRUGMATRIX: Serotonin (5-Hydroxytryptamine) 5-HT2C radioligand binding (ligand: [3H] Mesulergine). Format: cell membranes, CHO-K1, Membrane. The following applies: Not Active = under 50% inhibition at 10 µM.

Assay [2] can be described thus: DRUGMATRIX: beta-Lactamase enzyme inhibition (substrate: Nitrocefin). Further details: species or system Bacillus cereus. The following applies: Not Active = under 50% inhibition at 10 µM.
Assay [3] is described as follows: DRUGMATRIX: GABAA, Flunitrazepam, Central radioligand binding (ligand: [3H] Flunitrazepam). The following applies: Not Active = under 50% inhibition at 10 µM. Format: cell membranes, Rattus norvegicus, Wistar, Brain, Membrane.
The target of assay [4] is T2, C-C chemokine receptor type 4 (Homo sapiens, UniProt P51679). Further: in other assays of this panel Not Active means under 50% inhibition at 10 µM.
T2 sequence (P51679 whole entry): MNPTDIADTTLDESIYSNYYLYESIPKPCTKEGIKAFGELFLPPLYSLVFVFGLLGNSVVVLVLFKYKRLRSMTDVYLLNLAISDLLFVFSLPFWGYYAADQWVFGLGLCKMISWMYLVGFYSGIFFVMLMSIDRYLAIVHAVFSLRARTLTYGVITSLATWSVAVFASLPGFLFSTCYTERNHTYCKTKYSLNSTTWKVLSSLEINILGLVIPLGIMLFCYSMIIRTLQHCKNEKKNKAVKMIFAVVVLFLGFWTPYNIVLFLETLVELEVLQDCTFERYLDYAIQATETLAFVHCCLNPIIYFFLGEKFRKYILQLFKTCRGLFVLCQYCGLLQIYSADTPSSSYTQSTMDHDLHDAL
Format: cell membranes, Membrane. To be noted: chem-1.

The target in another assay is T3, Interstitial collagenase (Homo sapiens, UniProt P03956).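 Further: MMP-1 enzyme inhibition assay using a peptide substrate; in other assays of this panel Not Active means under 50% inhibition at 10 µM.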
T3 sequence (P03956 whole entry): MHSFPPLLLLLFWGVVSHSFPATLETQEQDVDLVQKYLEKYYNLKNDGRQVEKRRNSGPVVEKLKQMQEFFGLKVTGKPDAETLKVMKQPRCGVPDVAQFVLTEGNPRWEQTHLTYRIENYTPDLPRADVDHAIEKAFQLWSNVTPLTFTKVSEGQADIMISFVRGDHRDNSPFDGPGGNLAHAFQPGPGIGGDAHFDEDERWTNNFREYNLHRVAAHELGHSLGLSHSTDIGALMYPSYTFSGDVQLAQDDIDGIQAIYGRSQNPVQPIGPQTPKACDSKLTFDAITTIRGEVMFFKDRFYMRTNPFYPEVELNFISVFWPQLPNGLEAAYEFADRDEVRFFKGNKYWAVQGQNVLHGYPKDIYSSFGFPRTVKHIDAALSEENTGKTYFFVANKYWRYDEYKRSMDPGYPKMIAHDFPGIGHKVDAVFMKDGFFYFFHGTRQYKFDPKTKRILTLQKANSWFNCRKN
In words: biochemical. The class given is tissue-based, Rheumatoid synovial fibroblasts.

Assay [5] is described as follows: DRUGMATRIX: Glutamate, AMPA radioligand binding (ligand: [3H] AMPA). The class given is cell membranes, Rattus norvegicus, Wistar, Cerebral cortex, Membrane. The following applies: Not Active = under 50% inhibition at 10 µM.
The target in assay [6] is T4, 3-hydroxy-3-methylglutaryl-coenzyme A reductase (Homo sapiens, UniProt P04035).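 Further: enzyme inhibition assay of HMG-CoA reductase using radiolabeled [14C]HMG-CoA as substrate; in other assays of this panel Not Active means under 50% inhibition at 10 µM.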
T4 sequence (P04035 whole entry): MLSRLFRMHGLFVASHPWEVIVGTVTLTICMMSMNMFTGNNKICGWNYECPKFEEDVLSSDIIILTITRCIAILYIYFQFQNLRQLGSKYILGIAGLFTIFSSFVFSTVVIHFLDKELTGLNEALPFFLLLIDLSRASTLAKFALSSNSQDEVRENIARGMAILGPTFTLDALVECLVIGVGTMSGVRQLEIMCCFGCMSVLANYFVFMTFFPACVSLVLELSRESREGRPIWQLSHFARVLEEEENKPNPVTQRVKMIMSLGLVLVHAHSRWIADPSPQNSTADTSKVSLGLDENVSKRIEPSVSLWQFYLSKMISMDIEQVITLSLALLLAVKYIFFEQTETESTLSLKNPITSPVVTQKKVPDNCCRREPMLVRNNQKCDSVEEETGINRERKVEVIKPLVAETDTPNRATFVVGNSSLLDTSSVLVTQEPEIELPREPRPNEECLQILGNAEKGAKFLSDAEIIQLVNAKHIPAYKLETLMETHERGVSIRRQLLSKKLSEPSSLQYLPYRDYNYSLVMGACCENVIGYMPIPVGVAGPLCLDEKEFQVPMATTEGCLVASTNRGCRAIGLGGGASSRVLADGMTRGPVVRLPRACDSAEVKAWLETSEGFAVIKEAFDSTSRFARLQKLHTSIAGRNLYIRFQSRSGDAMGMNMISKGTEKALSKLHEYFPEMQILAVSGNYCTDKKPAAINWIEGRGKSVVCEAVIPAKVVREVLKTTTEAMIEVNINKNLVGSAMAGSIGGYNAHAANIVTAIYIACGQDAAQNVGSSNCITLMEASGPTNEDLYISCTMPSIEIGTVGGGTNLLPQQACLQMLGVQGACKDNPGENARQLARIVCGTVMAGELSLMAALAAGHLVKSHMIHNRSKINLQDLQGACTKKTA
Further details: species or system Escherichia coli.

As for `CN1C(=O)CN=C(c2ccccc2)c2cc([N+](=O)[O-])ccc21` [NIMETAZEPAM], the IC50 (in general, the point on the concentration scale where inhibition reaches its midpoint) in assay [1] (cho-k1) was “Not Active”; in assay [2], “Not Active”; in assay [3] (read-out: IC50) it was 104 nM; in assay [4] it was “Not Active”; against Interstitial collagenase, “Not Active”; in assay [5] it was “Not Active”. For the same compound, the IC50 entry in assay [6] is reported as “Not Active”. Further, the Ki (commonly the dissociation constant of the complex between target and ligand, obtained from inhibition or displacement) in assay [2] was “Not Active”; in assay [3] (read-out: Ki), 85 nM; in assay [5] it was “Not Active”.

As for `COc1ccc2c(c1OC)C(=O)O[C@@H]2[C@H]1c2c(cc3c(c2OC)OCO3)CCN1C` [NOSCAPINE], the IC50 result (in assay [1] (cho-k1); in assay [2]; in assay [3]; in assay [4]; on Interstitial collagenase; in assay [5]) was “Not Active” throughout. The IC50 result in assay [6] was “Not Active”. Also, the Ki entry in assay [2], in assay [3] and in assay [5] was “Not Active” throughout.

Regarding `C[C@@H]1O[C@@H](O[C@H]2C[C@@H](O)[C@]3(CO)[C@H]4[C@H](O)C[C@]5(C)[C@@H](C6=CC(=O)OC6)CC[C@]5(O)[C@@H]4CC[C@]3(O)C2)[C@H](O)[C@H](O)[C@H]1O` [OUABAIN], the IC50 result (in assay [1] (cho-k1); in assay [2]; in assay [3]; in assay [4]; against Interstitial collagenase; in assay [5]) was “Not Active” in each case. For the same compound, the IC50 entry in assay [6] was “Not Active”. In addition, the Ki result in assay [2], in assay [3] and in assay [5] was “Not Active” in each case.

With `NC(=O)N1c2ccccc2CC(=O)c2ccccc21` [OXCARBAZEPINE], the half-inhibitory concentration (IC50) entry (in assay [1] (cho-k1); in assay [2]; in assay [3]; in assay [4]; on Interstitial collagenase; in assay [5]) was “Not Active” each time. Further, in assay [6], the IC50 entry is on record as “Not Active”. Also, the inhibition constant (Ki) entry in assay [2], in assay [3] and in assay [5] was “Not Active” throughout.

In the case of `COc1ccnc(C[S+]([O-])c2nc3ccc(OC(F)F)cc3[nH]2)c1OC` (stereo unspecified) [PANTOPRAZOLE], the IC50 result (in assay [1] (cho-k1); in assay [2]; in assay [3]; in assay [4]; against Interstitial collagenase; in assay [5]) was “Not Active” throughout. Moreover, the IC50 entry in assay [6] was “Not Active”. In addition, the Ki result in assay [2], in assay [3] and in assay [5] was “Not Active” in each case.

On to `N=C(N)c1ccc(OCCCCCOc2ccc(C(=N)N)cc2)cc1` [PENTAMIDINE], for which the IC50 is 3280 nM in assay [1] (read-out: IC50); “Not Active” in assay [2]; “Not Active” in assay [3]; “Not Active” in assay [4]; “Not Active” against Interstitial collagenase; “Not Active” in assay [5]. Moreover, in assay [6], the half-maximal inhibitory concentration (IC50) entry is reported as “Not Active”. Moreover, the Ki in assay [1] (read-out: Ki) is 1720 nM; in assay [2], “Not Active”; in assay [3], “Not Active”; in assay [5], “Not Active”.

Regarding `NNCCc1ccccc1` [PHENELZINE], the IC50 result (in assay [1] (cho-k1); in assay [2]; in assay [3]; in assay [4]; on Interstitial collagenase; in assay [5]) was “Not Active” each time. Besides, the IC50 result in assay [6] was “Not Active”. The Ki result in assay [2], in assay [3] and in assay [5] was “Not Active” in each case.

With `CCc1ccc(CCOc2ccc(CC3SC(=O)NC3=O)cc2)nc1` (stereo unspecified) [PIOGLITAZONE], the IC50 entry (in assay [1] (cho-k1); in assay [2]; in assay [3]; in assay [4]; on Interstitial collagenase; in assay [5]) was “Not Active” each time. Further, the concentration for half-maximal inhibition (IC50) result in assay [6] is “Not Active”. Further, the Ki result in assay [2], in assay [3] and in assay [5] was “Not Active” each time.

Consider `CCCNC(C)C(=O)Nc1ccccc1C` (stereo unspecified) [PRILOCAINE], for which the IC50 entry (in assay [1] (cho-k1); in assay [2]; in assay [3]; in assay [4]; against Interstitial collagenase; in assay [5]) was “Not Active” each time. In addition, the IC50 result in assay [6] is on record as “Not Active”. The Ki entry in assay [2], in assay [3] and in assay [5] was “Not Active” each time.

On to `CCN(CC)CCNC(=O)c1ccc(N)cc1` [PROCAINAMIDE], for which the concentration for half-maximal inhibition (IC50) result (in assay [1] (cho-k1); in assay [2]; in assay [3]; in assay [4]; against Interstitial collagenase; in assay [5]) was “Not Active” throughout. In addition, the IC50 entry in assay [6] is “Not Active”. Besides, the inhibition constant (Ki) result in assay [2], in assay [3] and in assay [5] was “Not Active” each time.

Regarding `CCN(CC)CCCC(C)Nc1c2ccc(Cl)cc2nc2ccc(OC)cc12` (stereo unspecified) [QUINACRINE], the IC50 result (in assay [1] (cho-k1); in assay [2]; in assay [3]; in assay [4]; on Interstitial collagenase; in assay [5]) was “Not Active” in each case. Besides, in assay [6], the 50% inhibitory concentration (IC50) entry is “Not Active”. Further, the Ki result in assay [2], in assay [3] and in assay [5] was “Not Active” in each case.

With `C[C@]12C=CC(=O)C=C1CC[C@H]1[C@@H]3C[C@@H](O)[C@](O)(C(=O)CO)[C@@]3(C)C[C@H](O)[C@@]12F` [TRIAMCINOLONE], the IC50 entry (in assay [1] (cho-k1); in assay [2]; in assay [3]; in assay [4]; at Interstitial collagenase; in assay [5]) was “Not Active” in each case. In addition, the IC50 entry in assay [6] is “Not Active”. Also, the Ki entry in assay [2], in assay [3] and in assay [5] was “Not Active” in each case.

With `CC[C@]1(O)C[C@@H]2CN(CCc3c([nH]c4ccccc34)[C@@](C(=O)OC)(c3cc4c(cc3OC)N(C)[C@H]3[C@@](O)(C(N)=O)[C@H](O)[C@]5(CC)C=CCN6CC[C@]43[C@@H]65)C2)C1` [VINDESINE], the half-maximal inhibitory concentration (IC50) result (in assay [1] (cho-k1); in assay [2]; in assay [3]; in assay [4]; at Interstitial collagenase; in assay [5]) was “Not Active” in each case. Moreover, the IC50 result in assay [6] is “Not Active”. The Ki entry in assay [2], in assay [3] and in assay [5] was “Not Active” throughout.

Source of the values: ChEMBL document CHEMBL1909046, “DrugMatrix in vitro pharmacology data”.
